Data on one compound can be found in patent publication US20200010903A1, “AAV-Mediated Direct In vivo CRISPR Screen in Glioblastoma” (YALE UNIVERSITY, priority 2017, published 2020).

Holding throughout (assay type): cell-based, mouse
Assay [1] relates to Rb1, Rb1; Pten, and Rb1; Zc3h13 GBM cells. The assay can be described thus: RNA-seq TMZ vs DMSO, overlap of differentially expressed genes between genotypes. The procedure: (§1) Temozolomide (TMZ) treatment, Cell viability assay, and RNAseq: After 7-9 days' culture under puromycin selection, lentiviruses-infected Nf1 and Rb1 knockout tumor cells were plated in triplicates into 96-well plate at a density of 2.5×10^3 cells per well, and ˜5×10^6 cells were collected at the same time and used for cutting efficiency analysis. One day after plating, either TMZ or DMSO was added at a concentration of 10 μM, 100 μM, 500 μM, 1 mM, and 2 mM. After 3 days of drug/vehicle treatment, cell viability was measured using CellTiter Glo (Promega) according to the manufactures' protocol. Briefly, the CellTiter Glo was equilibrated at room temperature for 1 h before use. The media of 96-well plates was aspirated, and then 50 μL fresh DMEM+10% FBS and 50 μL CellTiter Glo was added. The luminescent signals were readout using EnVision plate reader (PerkinElmer). For RNAseq samples preparation, cell lines harboring specific gene knockouts were cultured for 7-9 days under the selection pressure of puromycin, and then plated into 6-well plates at a density of 2×10^5 cells per well in triplicates. 24 h after plating, 1 mM TMZ or DMSO in fresh DEME+10% FBS was added and cultured for another 48 h. Then, cellular RNA of control or treated cells were extracted by adding 350 μL TRIzol Reagent (Invitrogen) directly into 6-well plates to lyse the cells, followed by gently shaking the plates and incubation for 5-10 min to complete and lysis and homogenization. Then, 70 μL chloroform was added, vigorously mixed, and centrifuged at 16,000 g for 15 min. Transfer the RNA containing aqueous phase to a new tube and further purified using RNeasy mini kit (Qiagen). After eluting RNA from column using Nuclease free water, the concentrations of sample RNA were normalized into 150-300 ng/uL for RNAseq.
Transcriptome profiling of different driver combinations in the presence and absence of chemotherapy: Mixtures of five sgRNAs targeting each gene were cloned as sgRNA minipool into the same astrocyte-specific AAV-CRISPR vector. After packaging, AAV minipools were stereotaxically injected into the lateral ventricle of LSL-Cas9 mice. Cell lines were derived from mouse GBMs by single-cell isolation, plating and culture in DMEM media. Additional driver mutations were introduced by lentiCRISPR where applicable. GBM cells with different drivers were treated with DMSO or TMZ for 48 h, and harvested for mRNA-seq for transcriptome profiling. […]
RNA-seq differential expression analysis: Strand-specific single-end RNA-seq read files were analyzed to obtain transcript level counts using Kallisto, with the settings --rf-stranded -b 100. […]

Another assay concerns Rb1; Zc3h13 GBM cells. Kind of assay: RNA-seq differential expression, TMZ vs DMSO. The settings on record: 1 mM TMZ vs DMSO, 48 h. The procedure:
as §1
(§2) Transcriptome profiling of different driver combinations in the presence and absence of chemotherapy: Mixtures of five sgRNAs targeting each gene were cloned as sgRNA minipool into the same astrocyte-specific AAV-CRISPR vector. After packaging, AAV minipools were stereotaxically injected into the lateral ventricle of LSL-Cas9 mice. Cell lines were derived from mouse GBMs by single-cell isolation, plating and culture in DMEM media. Additional driver mutations were introduced by lentiCRISPR where applicable. GBM cells with different drivers were treated with DMSO or TMZ for 48 h, and harvested for mRNA-seq for transcriptome profiling. Briefly, total RNA was extracted from cancer cells derived from AAV-CRISPR minipools induced GBM treated with DMSO or TMZ, using commercially available kits (Qiagen/Thermofisher). PolyA-mRNA library was constructed using Illumina TruSeq mRNA library prep kit, and sequenced on Illumina Hiseq 2500 and/or Hiseq 4000 platform.
(§3) RNA-seq differential expression analysis: Strand-specific single-end RNA-seq read files were analyzed to obtain transcript level counts using Kallisto, with the settings --rf-stranded -b 100. The counts were subsequently passed to the tximport R package to collapse to gene level counts. Pairwise differential expression analysis between groups was then performed using edgeR with default settings.

The test system of another assay is Rb1; Pten GBM cells. Kind of assay: RNA-seq differential expression, TMZ vs DMSO. To be noted: 1 mM TMZ vs DMSO, 48 h. The procedure: as §1, §2, §3
Another assay has as its system Rb1 GBM cells. The assay can be described thus: RNA-seq differential expression, TMZ vs DMSO. The settings on record: 1 mM TMZ vs DMSO, 48 h. The procedure: as §1, §2, §3
The mark [2] stands for this setting: shared by Rb1, Rb1, Pten, Rb1, Zc3h13.

In the case of `Cn1nnc2c(C(N)=O)ncn2c1=O` [TMZ, temozolomide], in assay [1], the “genes significantly reduced upon TMZ treatment in Rb1; Zc3h13 and Rb1; Pten cells, but not in Rb1 cells” value is reported as 37 genes; the “genes upregulated upon TMZ treatment in Rb1; Zc3h13 and Rb1; Pten cells, but not in Rb1 cells” value is recorded as 60 genes. Moreover, in assay [1] (setting [2]), the “genes downregulated among all 3 genotypes upon TMZ treatment” value came out at 69 genes and the “genes upregulated in all 3 groups upon TMZ treatment” value came out at 42 genes. In the assay on Rb1; Zc3h13 GBM cells, the “genes significantly higher in DMSO-treated cells” value came to 166 genes and the “genes significantly higher in TMZ-treated cells” value came out at 703 genes. In the assay with Rb1; Pten GBM cells, the “genes significantly higher in DMSO-treated cells” value was 313 genes and the “genes significantly higher in TMZ-treated cells” value is on record as 345 genes. The “genes significantly higher in DMSO-treated cells (TMZ-reduced genes)” value with Rb1 GBM cells is given as 332 genes. Moreover, the “genes significantly higher in TMZ-treated cells (TMZ-induced genes)” value in the assay on Rb1 GBM cells (adjusted p<0.05, log fold change ≥1 or ≤−1) is listed as 352 genes.
